{"source": "patent US20240376163A1", "about": "“PEPTIDE FOR INHIBITING CALCINEURIN AND USE THEREOF” (Seoul National University R&DB Foundation, priority 2023, published 2024)", "tested_on": "Jurkat T cells", "test": "mRNA sequencing of activated Jurkat T cells", "format": "cell-based, human", "conditions": "P+I", "data": [{"compound": "C=CC[C@@H]1/C=C(\\C)C[C@H](C)C[C@H](OC)[C@H]2O[C@@](O)(C(=O)C(=O)N3CCCC[C@H]3C(=O)O[C@H](/C(C)=C/[C@@H]3CC[C@@H](O)[C@H](OC)C3)[C@H](C)[C@@H](O)CC1=O)[C@H](C)C[C@@H]2OC", "note": "[FK506, Tacrolimus, reference compound]", "values": [{"measurement": "ARHGEF6 FPKM", "result": 35.366, "unit": "FPKM"}, {"measurement": "ASAP1 FPKM", "result": 7.765, "unit": "FPKM"}, {"measurement": "ATG14 FPKM", "result": 7.863, "unit": "FPKM"}, {"measurement": "ATP2B4 FPKM", "result": 16.449, "unit": "FPKM"}, {"measurement": "ATXN1 FPKM", "result": 1.798, "unit": "FPKM"}, {"measurement": "BACH2 FPKM", "result": 29.7, "unit": "FPKM"}, {"measurement": "BAI2 FPKM", "result": 1.395, "unit": "FPKM"}, {"measurement": "BAIAP2-AS1 FPKM", "result": 2.72, "unit": "FPKM"}, {"measurement": "BATF3 FPKM", "result": 36.514, "unit": "FPKM"}, {"measurement": "BHLHE40 FPKM", "result": 6.563, "unit": "FPKM"}, {"measurement": "BTG1 FPKM", "result": 22.099, "unit": "FPKM"}, {"measurement": "C1QL1 FPKM", "result": 1.444, "unit": "FPKM"}, {"measurement": "C1orf233 FPKM", "result": 0.79, "unit": "FPKM"}, {"measurement": "C3 FPKM", "result": 0.489, "unit": "FPKM"}, {"measurement": "C9orf9 FPKM", "result": 7.304, "unit": "FPKM"}, {"measurement": "C10orf54 FPKM", "result": 0.382, "unit": "FPKM"}, {"measurement": "C16orf46 FPKM", "result": 2.655, "unit": "FPKM"}, {"measurement": "CASC15 FPKM", "result": 4.027, "unit": "FPKM"}, {"measurement": "CBX4 FPKM", "result": 12.478, "unit": "FPKM"}, {"measurement": "CBX6 FPKM", "result": 42.006, "unit": "FPKM"}, {"measurement": "CCDC64 FPKM", "result": 10.044, "unit": "FPKM"}, {"measurement": "CCDC71L FPKM", "result": 13.763, "unit": "FPKM"}, {"measurement": "CCL1 FPKM", "result": 0, "unit": "FPKM"}, {"measurement": "CCL3L1 FPKM", "result": 0, "unit": "FPKM"}, {"measurement": "CCL4 FPKM", "result": 0, "unit": "FPKM"}, {"measurement": "CCL4L1 FPKM", "result": 0.087, "unit": "FPKM"}, {"measurement": "CCL4L2 FPKM", "result": 0.087, "unit": "FPKM"}, {"measurement": "CCND2 FPKM", "result": 0.558, "unit": "FPKM"}, {"measurement": "CD1A FPKM", "result": 4.589, "unit": "FPKM"}, {"measurement": "CD1C FPKM", "result": 3.288, "unit": "FPKM"}, {"measurement": "CD1D FPKM", "result": 2.553, "unit": "FPKM"}, {"measurement": "CD27-AS1 FPKM", "result": 5.11, "unit": "FPKM"}, {"measurement": "CD27 FPKM", "result": 3.098, "unit": "FPKM"}, {"measurement": "CD55 FPKM", "result": 6.015, "unit": "FPKM"}, {"measurement": "CD69 FPKM", "result": 125.597, "unit": "FPKM"}, {"measurement": "CD83 FPKM", "result": 35.907, "unit": "FPKM"}, {"measurement": "CDCA7 FPKM", "result": 26.911, "unit": "FPKM"}, {"measurement": "CDT1 FPKM", "result": 11.013, "unit": "FPKM"}, {"measurement": "CFD FPKM", "result": 0.937, "unit": "FPKM"}, {"measurement": "CHI3L2 FPKM", "result": 58.214, "unit": "FPKM"}, {"measurement": "CHRNA9 FPKM", "result": 4.046, "unit": "FPKM"}, {"measurement": "CLEC2B FPKM", "result": 60.911, "unit": "FPKM"}, {"measurement": "CNR2 FPKM", "result": 0.674, "unit": "FPKM"}, {"measurement": "CORO2A FPKM", "result": 1.862, "unit": "FPKM"}, {"measurement": "CRIM1 FPKM", "result": 0.305, "unit": "FPKM"}, {"measurement": "CRTAM FPKM", "result": 3.325, "unit": "FPKM"}, {"measurement": "CSRNP1 FPKM", "result": 26.052, "unit": "FPKM"}, {"measurement": "CST7 FPKM", "result": 2.338, "unit": "FPKM"}, {"measurement": "CTDSPL FPKM", "result": 1.758, "unit": "FPKM"}, {"measurement": "CTTN FPKM", "result": 11.037, "unit": "FPKM"}, {"measurement": "CXCL3 FPKM", "result": 3.147, "unit": "FPKM"}, {"measurement": "CXCL9 FPKM", "result": 0.839, "unit": "FPKM"}, {"measurement": "CXCL10 FPKM", "result": 0.352, "unit": "FPKM"}, {"measurement": "CXCR3 FPKM", "result": 0.503, "unit": "FPKM"}, {"measurement": "CYB5RL FPKM", "result": 1.807, "unit": "FPKM"}, {"measurement": "DFNA5 FPKM", "result": 12.016, "unit": "FPKM"}, {"measurement": "DHFR FPKM", "result": 7.656, "unit": "FPKM"}, {"measurement": "DNAJB11 FPKM", "result": 107.644, "unit": "FPKM"}, {"measurement": "DNAJC1 FPKM", "result": 13.765, "unit": "FPKM"}, {"measurement": "DNPEP FPKM", "result": 31.154, "unit": "FPKM"}, {"measurement": "DOK2 FPKM", "result": 27.372, "unit": "FPKM"}, {"measurement": "DPY19L2P2 FPKM", "result": 2.937, "unit": "FPKM"}, {"measurement": "DPYSL2 FPKM", "result": 11, "unit": "FPKM"}, {"measurement": "DTX3L FPKM", "result": 48.022, "unit": "FPKM"}, {"measurement": "DUSP2 FPKM", "result": 123.613, "unit": "FPKM"}, {"measurement": "DUSP5 FPKM", "result": 116.404, "unit": "FPKM"}, {"measurement": "E2F1 FPKM", "result": 7.783, "unit": "FPKM"}, {"measurement": "E2F2 FPKM", "result": 3.317, "unit": "FPKM"}, {"measurement": "EIF2AK3 FPKM", "result": 9.332, "unit": "FPKM"}, {"measurement": "ENC1 FPKM", "result": 9.299, "unit": "FPKM"}, {"measurement": "ENHO FPKM", "result": 1.746, "unit": "FPKM"}, {"measurement": "ENPP1 FPKM", "result": 124.248, "unit": "FPKM"}, {"measurement": "EPAS1 FPKM", "result": 5.846, "unit": "FPKM"}, {"measurement": "EPHA3 FPKM", "result": 2.019, "unit": "FPKM"}, {"measurement": "ERO1LB FPKM", "result": 5.101, "unit": "FPKM"}, {"measurement": "ETV5 FPKM", "result": 15.576, "unit": "FPKM"}, {"measurement": "EVI2A FPKM", "result": 15.078, "unit": "FPKM"}, {"measurement": "FAM46C FPKM", "result": 5.191, "unit": "FPKM"}, {"measurement": "FAM111B FPKM", "result": 5.291, "unit": "FPKM"}, {"measurement": "FASLG FPKM", "result": 1.518, "unit": "FPKM"}, {"measurement": "FBXO34 FPKM", "result": 14.612, "unit": "FPKM"}, {"measurement": "FMNL2 FPKM", "result": 2.726, "unit": "FPKM"}, {"measurement": "FOS FPKM", "result": 7.329, "unit": "FPKM"}, {"measurement": "FOXO1 FPKM", "result": 1.77, "unit": "FPKM"}, {"measurement": "FST FPKM", "result": 2.244, "unit": "FPKM"}, {"measurement": "FURIN FPKM", "result": 23.264, "unit": "FPKM"}, {"measurement": "FYB FPKM", "result": 11.107, "unit": "FPKM"}, {"measurement": "GAMT FPKM", "result": 10.915, "unit": "FPKM"}, {"measurement": "GBP1 FPKM", "result": 70.024, "unit": "FPKM"}, {"measurement": "GBP2 FPKM", "result": 27.591, "unit": "FPKM"}, {"measurement": "GBP3 FPKM", "result": 69.945, "unit": "FPKM"}, {"measurement": "GBP4 FPKM", "result": 4.384, "unit": "FPKM"}, {"measurement": "GBP5 FPKM", "result": 197.514, "unit": "FPKM"}, {"measurement": "GDPD5 FPKM", "result": 29.626, "unit": "FPKM"}, {"measurement": "GEM FPKM", "result": 2.495, "unit": "FPKM"}, {"measurement": "GINS2 FPKM", "result": 16.935, "unit": "FPKM"}, {"measurement": "GLIPR2 FPKM", "result": 15.84, "unit": "FPKM"}, {"measurement": "GNAQ FPKM", "result": 21.057, "unit": "FPKM"}, {"measurement": "GNG2 FPKM", "result": 25.67, "unit": "FPKM"}, {"measurement": "GPR3 FPKM", "result": 7.96, "unit": "FPKM"}]}]}
